According to PubChem BioAssay (NCI):
“And” between values parts separate entries of the source, which are not always exact repeats. Identical values can stand only once.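 These data come from cells grown in 96-well plates and exposed to compound for 48 hours at five concentrations. Here, GI50 denotes the concentration required for 50% inhibition of growth. The concentration for full growth arrest is given as TGI.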

How the values were obtained:
Assay in all cases: inhibition of tumour cell growth, NCI panel, 48 h
[1] = system: A549 NSCLC
[2] = system: COLO 205 colon
[3] = system: HL-60(TB) leukemia
[4] = system: KM12 colon
[5] = system: NCI/ADR-RES ovarian
[6] = system: OVCAR-4 ovarian
[7] = system: RXF 393 renal
[8] = system: SF-295 CNS
[9] = system: SN12C renal
[10] = system: SR leukemia

Row | SMILES | GI50 [1] | TGI [1] | GI50 [2] | TGI [2] [µM] | GI50 [3] | TGI [3] | GI50 [4] | TGI [4] | GI50 [5] | TGI [5] | GI50 [6] | TGI [6] | GI50 [7] | TGI [7] | GI50 [8] | TGI [8] | GI50 [9] | TGI [9] | GI50 [10] | TGI [10]
1 | CN1CCN(c2ccc(C(=O)Nc3n[nH]c4ccc(Cc5cc(F)cc(F)c5)cc34)c(NC3CCOCC3)c2)CC1 | 2.5 µM and 1.3 µM | > 10 µM and 2.72 µM | 1.48 µM | 3.1 | 1.83 µM and 1.66 µM | 4.19 µM and 3.38 µM | 0.00436 µM | 1.49 µM and 1.12 µM | 4.81 µM and 2.02 µM | > 10 µM and 4.54 µM | 6.95 µM and 1.45 µM | > 10 µM and 4.09 µM | 1.17 µM | 2.69 µM | 3.94 µM and 1.45 µM | > 10 µM and 3.11 µM | 2.6 µM and 1.34 µM | > 10 µM and 2.93 µM | 0.0734 µM and 0.0312 µM | 2.15 µM and 1.69 µM
2 | O=S(=O)(Nc1ncccn1)c1ccc(N=Nc2ccc(O)c3ncccc23)cc1 | 5.46 µM | 29 µM | 26.2 µM | > 100 | 6.34 µM | 32.1 µM | 5.87 µM | 29.8 µM | 5.37 µM | 51.8 µM | 4.51 µM | 71.7 µM | 9.95 µM | 29.2 µM | 2.89 µM | 12 µM | 6.43 µM | 53.4 µM | 4.62 µM | 63 µM
3 | N#Cc1cc(C#N)c(Cl)nc1N |  | > 10 µM |  | > 10 |  | > 10 µM |  | > 10 µM |  | > 10 µM |  | > 10 µM |  | > 10 µM |  | > 10 µM |  | > 10 µM |  | > 10 µM
4 | C(=Nc1ccccc1)C1CCCC[N-]1.C(=Nc1ccccc1)C1CCCC[N-]1.[Cu+2].[O-][Cl+3]([O-])([O-])O (stereo not drawn) | > 36.8 µM | > 57.1 µM | 12.8 µM | > 52.2 | 6.26 µM | 31.5 µM | 1.07 µM | 22.4 µM | 8.33 µM | 29.7 µM | 26 µM | 84.4 µM | 38.2 µM | > 100 µM | 3.13 µM | 18.8 µM | 15.4 µM | 36.1 µM | 1.64 µM | 6.12 µM
5 | CO[C@H](C(=O)[C@@H](O)[C@@H](C)O)[C@@H]1Cc2cc3cc(O[C@H]4C[C@@H](O[C@H]5C[C@@H](O)[C@H](O)C(C)O5)[C@H](O)C(C)O4)c(C)c(O)c3c(O)c2C(=O)[C@H]1O[C@H]1C[C@@H](O[C@H]2C[C@@H](O[C@H]3C[C@@H](OC)[C@H](O)C(C)O3)[C@@H](O)C(C)O2)C(O)(O)C(C)O1 (stereo partly drawn) | 0.0843 µM | > 25 µM | 0.0833 µM | 0.89 | 2.94 µM | > 25 µM | 0.102 µM | > 25 µM | > 25 µM | > 25 µM | 0.404 µM | > 11.7 µM | 0.0525 µM | 0.306 µM | 0.0601 µM | > 25 µM | 0.112 µM | > 25 µM | 0.0932 µM | > 25 µM
6 | CC1=NN(C(=O)c2ccccc2O)C(=O)/C1=C/c1ccc([N+](=O)[O-])cc1 | 0.357 µM | > 100 µM | 7.43 µM | > 88 | 1.08 µM |  | 0.779 µM | > 100 µM | 0.449 µM |  | 0.783 µM | > 100 µM | 0.263 µM |  | 0.379 µM | > 100 µM | 2.06 µM | > 26.5 µM | 5.04 µM | 
7 | Cc1c2cc[nH]c(=O)c2c(C)c2c1[nH]c1cc(OCCN3CCN(C)CC3)ccc12 | 0.452 µM | 1.96 µM | 0.353 µM | 2.2 | 1.44 µM | 4.36 µM | 1.19 µM | 5.61 µM | 3.37 µM | 16.3 µM | 1.17 µM | 4.82 µM | 1.21 µM | 2.72 µM | 0.788 µM | 7.76 µM | 0.389 µM | 3.31 µM | 0.314 µM | 12 µM
8 | CCOc1ccc2nc(NC(=O)C(=O)C(C(=O)c3ccccc3-c3ccccc3)C3OC(=O)c4ccccc43)sc2c1 (stereo not drawn) |  | > 71.2 µM |  | 37 |  | 68.7 µM |  | 32.5 µM |  | 37.9 µM |  | > 100 µM |  | 18.1 µM |  | > 93.8 µM |  | 51.9 µM |  | 43 µM
9 | Cc1cc(C)nc(NC(N)=NCCc2ccccc2)n1 | 3.03 µM | 89 µM | 2.68 µM | 12.5 | 2.9 µM | 12.4 µM | 3.62 µM | > 100 µM | 31 µM | > 100 µM | 5.35 µM | > 100 µM | 7.22 µM | 77.2 µM | 1.64 µM | 5.44 µM | 3.2 µM | 35.8 µM | 2.77 µM | 14.5 µM
10 | Cc1nc2ccc(CN(C)c3ccc(C(=O)N[C@@H](CCC(=O)O)C(=O)O)s3)cc2c(=O)[nH]1 |  | > 100 µM |  | > 100 |  | > 100 µM |  | > 100 µM | < 0.0149 µM | > 100 µM |  | > 100 µM | > 21.7 µM | > 100 µM |  | > 100 µM |  | > 100 µM |  | > 100 µM
11 | CNC(=O)c1cc(COc2nnc(Nc3ccc(Cl)cc3)c3ccoc23)ccn1 | 4.66 µM and > 10 µM | 20.1 µM and > 10 µM | 20.6 µM and > 10 µM | > 79 | > 100 µM | > 100 µM | 21.5 µM and > 10 µM | 80.9 µM and > 10 µM | 4.48 µM and > 10 µM | > 42.5 µM | 2.87 µM and 3.16 µM | 11.7 µM and > 10 µM | 2.99 µM and 9.09 µM | 11 µM and > 10 µM | 6.39 µM and > 10 µM | 24.9 µM and > 10 µM | 8.86 µM and > 10 µM | 27.2 µM and > 10 µM | 20.1 µM and > 10 µM | 83.1 µM and > 10 µM
12 | COC(=O)[C@@H](NC(=O)NC(=O)NC(=O)CI)C(C)C | 22.4 µM | 41.5 µM | 1.97 µM | 4.01 | 1.7 µM | 3.86 µM | 17.4 µM | 33.8 µM | 25.4 µM | 73 µM | 3.19 µM | 13.7 µM | 6.35 µM | 18.8 µM | 17.9 µM | 40.6 µM | 5.46 µM | 25.7 µM | 1.76 µM | 5.64 µM
13 | COc1ccc(-c2[nH]ncc2-c2cc3c(c(OC)c2)OCC(=O)N3)cc1 | 1.44 µM | > 100 µM | 0.465 µM | 12.8 | 0.352 µM | 2.06 µM | 0.36 µM | 32.8 µM | 1.43 µM | 29.2 µM | 2.91 µM | 77.9 µM | 0.392 µM | 2.55 µM | 0.398 µM | 15.2 µM | 0.63 µM | > 100 µM | 0.285 µM | > 47.7 µM
